Laboratory results published in ChEMBL document CHEMBL4828771, “Discovery and Development of a Potent, Selective, and Orally Bioavailable CHK1 Inhibitor Candidate: 5-((4-((3-Amino-3-methylbutyl)amino)-5-(trifluoromethyl)pyrimidin-2-yl)amino)picolinonitrile” (J Med Chem, 2021).

Assays:
Z-138 = assay: Antiproliferation activity against human Z138 cells assessed as reduction in cell viability incubated for 72 hrs by MTS assay; format: functional, cell-based; conditions: Z-138, 72 h
hERG (KCNH2) = hERG (KCNH2) (Homo sapiens, UniProt Q12809); assay: Inhibition of human ERG expressed in HEK293 cells at 10 uM by patch-clamp technique relative to control; format: cell-based; conditions: HEK293 cells that express hERG
[1] = molecular target: T1, Serine/threonine-protein kinase Chk1 (Homo sapiens, UniProt O14757); assay: Inhibition of CHK1 (unknown origin) incubated for 1 hr in presence of ATP by HTRF assay
T1 sequence (O14757 whole entry): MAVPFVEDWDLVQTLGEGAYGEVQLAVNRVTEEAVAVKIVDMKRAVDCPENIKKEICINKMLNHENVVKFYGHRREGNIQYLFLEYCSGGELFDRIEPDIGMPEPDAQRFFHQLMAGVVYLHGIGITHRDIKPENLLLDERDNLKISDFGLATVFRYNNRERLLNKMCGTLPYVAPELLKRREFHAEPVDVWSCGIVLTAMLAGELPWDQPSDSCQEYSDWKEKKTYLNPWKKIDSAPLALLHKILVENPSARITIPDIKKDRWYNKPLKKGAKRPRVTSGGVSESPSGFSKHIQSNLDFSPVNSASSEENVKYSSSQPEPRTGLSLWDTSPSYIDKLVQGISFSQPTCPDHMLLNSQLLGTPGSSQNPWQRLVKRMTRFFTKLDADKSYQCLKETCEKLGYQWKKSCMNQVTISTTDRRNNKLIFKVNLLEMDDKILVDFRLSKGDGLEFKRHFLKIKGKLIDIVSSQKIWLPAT

MV4-11 = assay: Antiproliferation activity against human MV4-11 cells assessed as reduction in cell viability incubated for 72 hrs by MTS assay; format: functional, cell-based; conditions: MV4-11, 72 h
[2] = Cmax in ICR mouse at 20 mg/kg, po measured after 0.083 to 48 hrs by LC-MS/MS analysis; format: ADME, organism-based; parameters: route oral, time upper 48 hrs, time lower 0.083 hrs, dose 20 mg/kg; conditions: in vivo
[3] = Tmax in ICR mouse at 20 mg/kg, po measured after 0.083 to 48 hrs by LC-MS/MS analysis; format: ADME, organism-based; conditions: in vivo, time 0.083-48 hrs
[4] = AUCt in ICR mouse at 20 mg/kg, po measured after 0.083 to 48 hrs by LC-MS/MS analysis; format: ADME, organism-based; parameters: route oral, dose 20 mg/kg, time 0.083-48 hrs; conditions: in vivo
[5] = MRT (0 to infinity) in ICR mouse at 20 mg/kg, po measured after 0.083 to 48 hrs by LC-MS/MS analysis; format: ADME, organism-based; conditions: in vivo, time 0.083-48 hrs
[6] = Half life in ICR mouse at 20 mg/kg, po measured after 0.083 to 48 hrs by LC-MS/MS analysis; format: ADME, organism-based; conditions: in vivo, time 0.083-48 hrs
[7] = AUC (0 to infinity) in ICR mouse at 20 mg/kg, po measured after 0.083 to 48 hrs by LC-MS/MS analysis; format: ADME, organism-based; parameters: route oral, time upper 48 hrs, time lower 0.083 hrs, dose 20 mg/kg; conditions: in vivo

Sequence of hERG (KCNH2) (Q12809 whole entry): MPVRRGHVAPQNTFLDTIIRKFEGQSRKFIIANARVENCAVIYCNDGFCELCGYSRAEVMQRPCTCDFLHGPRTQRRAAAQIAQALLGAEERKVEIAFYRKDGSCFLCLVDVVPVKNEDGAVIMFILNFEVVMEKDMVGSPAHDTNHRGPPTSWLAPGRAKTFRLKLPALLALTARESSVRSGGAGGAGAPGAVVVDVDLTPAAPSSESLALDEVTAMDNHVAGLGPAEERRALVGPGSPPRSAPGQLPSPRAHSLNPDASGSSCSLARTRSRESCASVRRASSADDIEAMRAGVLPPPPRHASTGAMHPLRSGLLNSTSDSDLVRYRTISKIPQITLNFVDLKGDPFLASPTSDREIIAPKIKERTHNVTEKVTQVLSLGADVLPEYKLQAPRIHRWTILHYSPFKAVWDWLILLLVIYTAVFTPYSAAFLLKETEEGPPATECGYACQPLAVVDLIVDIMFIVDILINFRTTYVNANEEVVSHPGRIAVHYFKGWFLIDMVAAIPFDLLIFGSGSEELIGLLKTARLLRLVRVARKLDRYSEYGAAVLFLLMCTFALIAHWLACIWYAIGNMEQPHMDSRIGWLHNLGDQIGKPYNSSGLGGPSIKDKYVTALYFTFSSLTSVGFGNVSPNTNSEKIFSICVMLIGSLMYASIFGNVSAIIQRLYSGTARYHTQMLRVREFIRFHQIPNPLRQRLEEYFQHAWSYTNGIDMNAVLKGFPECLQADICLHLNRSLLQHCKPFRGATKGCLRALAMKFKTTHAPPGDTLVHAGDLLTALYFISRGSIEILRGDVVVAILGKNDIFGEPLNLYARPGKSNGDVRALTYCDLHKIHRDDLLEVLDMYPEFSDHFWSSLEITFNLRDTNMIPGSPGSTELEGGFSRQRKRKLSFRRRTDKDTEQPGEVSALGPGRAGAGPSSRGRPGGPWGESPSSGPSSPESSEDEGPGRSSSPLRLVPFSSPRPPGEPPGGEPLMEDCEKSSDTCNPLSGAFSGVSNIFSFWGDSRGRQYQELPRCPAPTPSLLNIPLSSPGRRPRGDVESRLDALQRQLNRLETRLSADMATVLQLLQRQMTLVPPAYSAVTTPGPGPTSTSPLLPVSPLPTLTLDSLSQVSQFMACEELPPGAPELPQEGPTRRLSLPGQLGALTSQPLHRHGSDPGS

| SMILES | IC50 [1] | also measured |
| --- | --- | --- |
| CNc1nc(Nc2cnc(C#N)c(N[C@H]3CC[C@H](N)CC3)c2)ncc1C(F)(F)F | 0.0331 µM | IC50 (Z-138): 0.96 µM; inhibition at 10 µM (hERG (KCNH2)): 5.3%; IC50 (MV4-11): 0.07 µM |
| CC(C)NCCCNc1nc(Nc2ccc(C#N)nc2)ncc1C(F)(F)F | 1.98 µM | – |
| CNc1nc(Nc2cnc(C#N)c(N[C@H]3CCCNC3)c2)ncc1C(F)(F)F | 0.502 µM | – |
| CNc1nc(Nc2cnc(C#N)c(OC3CCNCC3)c2)ncc1C(F)(F)F | 0.0327 µM | IC50 (Z-138): 0.44 µM; IC50 (MV4-11): 0.24 µM |
| COCCNCCCNc1nc(Nc2ccc(C#N)nc2)ncc1C(F)(F)F | 0.577 µM | – |
| N#Cc1ccc(Nc2ncc(C(F)(F)F)c(NC[C@H]3CNCCO3)n2)cn1 | 0.0373 µM | IC50 (Z-138): 1.13 µM; inhibition at 10 µM (hERG (KCNH2)): 31.3%; IC50 (MV4-11): 0.4 µM |
| CNc1nc(Nc2cnc(C#N)c(NCC3CCCCN3)c2)ncc1C(F)(F)F (centres undefined) | 0.0469 µM | IC50 (Z-138): 0.21 µM; IC50 (MV4-11): 0.16 µM |
| CNc1nc(Nc2cnc(C#N)c(NCCN)c2)ncc1C(F)(F)F | 0.0191 µM | IC50 (Z-138): 0.4 µM; inhibition at 10 µM (hERG (KCNH2)): 9%; IC50 (MV4-11): 0.21 µM |
| CNc1nc(Nc2cnc(C#N)c(O[C@H]3CCCNC3)c2)ncc1C(F)(F)F | 0.355 µM | – |
| CNc1nc(Nc2cnc(C#N)c(O[C@@H]3CCNC3)c2)ncc1C(F)(F)F | 0.0213 µM | IC50 (Z-138): 1.41 µM; IC50 (MV4-11): 0.43 µM |
| N#Cc1ccc(Nc2ncc(C(F)(F)F)c(NCC3CCCCN3)n2)cn1 (racemic) | 0.993 µM | – |
| CNc1nc(Nc2cnc(C#N)c(NC3CCNCC3)c2)ncc1C(F)(F)F | 0.101 µM | – |
| N#Cc1ccc(Nc2ncc(C(F)(F)F)c(NC[C@@H]3CCNC3)n2)cn1 | 0.0403 µM | IC50 (Z-138): 1.17 µM; IC50 (MV4-11): 0.2 µM |
| N#Cc1ccc(Nc2ncc(C(F)(F)F)c(NCCN)n2)cn1 | 0.217 µM | – |
| CNCCNc1cc(Nc2ncc(C(F)(F)F)c(NC)n2)cnc1C#N | 0.0279 µM | IC50 (Z-138): 0.27 µM; inhibition at 10 µM (hERG (KCNH2)): 46.4%; IC50 (MV4-11): 0.18 µM |
| N#Cc1ccc(Nc2ncc(C(F)(F)F)c(NCCCNC3CCCC3)n2)cn1 | 5.5 µM | – |
| CNc1nc(Nc2cnc(C#N)c(NC[C@@H]3CCCNC3)c2)ncc1C(F)(F)F | 0.11 µM | – |
| CNc1nc(Nc2cnc(C#N)c(OCC3CCNCC3)c2)ncc1C(F)(F)F | 0.213 µM | – |
| N#Cc1ccc(Nc2ncc(C(F)(F)F)c(NCCCNC3CC3)n2)cn1 | 0.27 µM | – |
| N#Cc1ccc(Nc2ncc(C(F)(F)F)c(N[C@@H]3CCCNC3)n2)cn1 | 0.831 µM | – |

| SMILES | IC50 [1] | also measured |
| --- | --- | --- |
| CN1CCC(CNc2nc(Nc3ccc(C#N)nc3)ncc2C(F)(F)F)CC1 | 0.185 µM | – |
| N#Cc1ccc(Nc2ncc(C(F)(F)F)c(NCCCNCCO)n2)cn1 | 0.217 µM | inhibition at 10 µM (hERG (KCNH2)): 35.2% |
| CN(C)CCCNc1nc(Nc2ccc(C#N)nc2)ncc1C(F)(F)F | 0.458 µM | – |
| N#Cc1ccc(Nc2ncc(C(F)(F)F)c(NCCCCN)n2)cn1 | 0.0884 µM | – |
| CNc1nc(Nc2cnc(C#N)c(OC3CCN(C)CC3)c2)ncc1C(F)(F)F | 0.0537 µM | – |
| N#Cc1ccc(Nc2ncc(C(F)(F)F)c(N[C@H]3CCCNC3)n2)cn1 | 0.0283 µM | IC50 (Z-138): 0.16 µM; inhibition at 10 µM (hERG (KCNH2)): 74.6%; IC50 (MV4-11): 0.27 µM |
| N#Cc1ccc(Nc2ncc(C(F)(F)F)c(NC3CCNCC3)n2)cn1 | 0.12 µM | – |
| CNc1nc(Nc2cnc(C#N)c(N[C@@H]3CCN(C)C3)c2)ncc1C(F)(F)F | 0.119 µM | – |
| N#Cc1ccc(Nc2ncc(C(F)(F)F)c(NCC3CCNCC3)n2)cn1 | 0.0655 µM | – |
| N#Cc1ccc(Nc2ncc(C(F)(F)F)c(NC3CCCNC3)n2)cn1 (racemic) | 0.0695 µM | – |
| N#Cc1ccc(Nc2ncc(C(F)(F)F)c(NC[C@@H]3CCCNC3)n2)cn1 | 0.0238 µM | IC50 (Z-138): 1.19 µM; inhibition at 10 µM (hERG (KCNH2)): 41.1%; IC50 (MV4-11): 0.3 µM |
| CNc1nc(Nc2cnc(C#N)c(NC[C@@H]3CCNC3)c2)ncc1C(F)(F)F | 0.0202 µM | IC50 (Z-138): 0.27 µM; inhibition at 10 µM (hERG (KCNH2)): 2.4%; IC50 (MV4-11): 0.14 µM |
| N#Cc1ccc(Nc2ncc(C(F)(F)F)c(NCC3CCCNC3)n2)cn1 (racemic) | 0.0626 µM | – |
| CNc1nc(Nc2cnc(C#N)c(N[C@@H]3CCCNC3)c2)ncc1C(F)(F)F | 0.0122 µM | IC50 (Z-138): 0.72 µM; inhibition at 10 µM (hERG (KCNH2)): 81.1%; IC50 (MV4-11): 0.05 µM |
| CNc1nc(Nc2cnc(C#N)c(O[C@@H]3CCCNC3)c2)ncc1-c1cnn(C(F)(F)F)c1 | 0.0068 µM | Cmax [2]: 0.093 µg/mL; Tmax [3]: 2 h; AUC(0-t) [4]: 0.126 µg·h/mL; MRT inf [5]: 2.58 h; half-life [6]: 0.89 h; AUC(0-inf) [7]: 0.13 µg·h/mL |
| N#Cc1ccc(Nc2ncc(C(F)(F)F)c(NCCCNCCC(N)=O)n2)cn1 | 0.107 µM | – |
| N#Cc1ccc(Nc2ncc(C(F)(F)F)c(NC[C@H]3CCCNC3)n2)cn1 | 0.111 µM | – |
| N#Cc1ccc(Nc2ncc(C(F)(F)F)c(NC3CN4CCC3CC4)n2)cn1 (centres undefined) | 0.307 µM | – |
| CNc1nc(Nc2cnc(C#N)c(NCCN(C)C)c2)ncc1C(F)(F)F | 0.034 µM | IC50 (Z-138): 0.29 µM; IC50 (MV4-11): 0.26 µM |
| CNc1nc(Nc2cnc(C#N)c(N[C@H]3CCNC3)c2)ncc1C(F)(F)F | 0.0595 µM | – |

| SMILES | IC50 [1] | also measured |
| --- | --- | --- |
| N#Cc1ccc(Nc2ncc(C(F)(F)F)c(N[C@H]3CCNC3)n2)cn1 | 0.214 µM | – |
| CNC(C)CCNc1nc(Nc2ccc(C#N)nc2)ncc1C(F)(F)F (centres undefined) | 0.0163 µM | IC50 (Z-138): 0.35 µM; inhibition at 10 µM (hERG (KCNH2)): 35.5%; IC50 (MV4-11): 0.15 µM |
| N#Cc1ccc(Nc2ncc(C(F)(F)F)c(NCCCNC3CCC3)n2)cn1 | 1.49 µM | – |
| CNc1nc(Nc2cnc(C#N)c(NC3CN4CCC3CC4)c2)ncc1C(F)(F)F (centres undefined) | 0.608 µM | – |
| N#Cc1ccc(Nc2ncc(C(F)(F)F)c(NCCCNC3CCCCC3)n2)cn1 | 2.26 µM | – |
| CNc1nc(Nc2cnc(C#N)c(N[C@H]3CC[C@@H](N)CC3)c2)ncc1C(F)(F)F | 0.0085 µM | IC50 (Z-138): 0.05 µM; inhibition at 10 µM (hERG (KCNH2)): 84.2%; IC50 (MV4-11): 0.01 µM |
| CNc1nc(Nc2cnc(C#N)c(OCCCN)c2)ncc1C(F)(F)F | 0.078 µM | – |
| N#Cc1ncc(Nc2ncc(C(F)(F)F)cn2)cc1O[C@@H]1CCCNC1 | 1.01 µM | – |
| CC(N)CCNc1nc(Nc2ccc(C#N)nc2)ncc1C(F)(F)F (racemic) | 0.0269 µM | IC50 (Z-138): 5.7 µM; inhibition at 10 µM (hERG (KCNH2)): 31.6%; IC50 (MV4-11): 0.39 µM |
| CC(C)(CN)CNc1nc(Nc2ccc(C#N)nc2)ncc1C(F)(F)F | 0.22 µM | – |
| N#Cc1ccc(Nc2ncc(C(F)(F)F)c(NCCCNCC(O)CO)n2)cn1 (centres undefined) | 0.152 µM | – |
| N#Cc1ccc(Nc2ncc(C(F)(F)F)c(NCCCNCCN3CCOCC3)n2)cn1 | 1.61 µM | – |
| N#Cc1ccc(Nc2ncc(C(F)(F)F)c(NC3CC4CCC(C3)N4)n2)cn1 (centres undefined) | 0.624 µM | – |
| N#Cc1ccc(Nc2ncc(C(F)(F)F)c(NCCCNC=O)n2)cn1 | 0.441 µM | – |
| CNc1nc(Nc2cnc(C#N)c(OC[C@@H]3CCCNC3)c2)ncc1C(F)(F)F | 0.244 µM | – |
| N#Cc1ccc(Nc2ncc(C(F)(F)F)c(N[C@H]3CC[C@@H](N)CC3)n2)cn1 | 0.0442 µM | inhibition at 10 µM (hERG (KCNH2)): 36.8% |
| CNc1nc(Nc2cnc(C#N)c(NCCCN)c2)ncc1C(F)(F)F | 0.0511 µM | – |
| CNc1nc(Nc2cnc(C#N)c(O[C@H]3CCNC3)c2)ncc1C(F)(F)F | 0.045 µM | – |
